Where a name gives a salt, the structure may show the parent alone. Starred links: 1 amine or outer side, 2 acyl side, 3 side chain; linkers in the order of their positions; H or OH if unused. Positions of bridges follow the written chain, without caps; N, C: chain ends. Non-standard residues stand in square brackets, D forms with d. Residues, ends and D or L forms follow the SMILES beside them. Groups on a side chain read outwards from the residue. *: point of attachment. Me3N+CH2CH2(OCH2CH2)4CO = C[N+](C)(C)CCOCCOCCOCCOCCC(=O)*; Me3N+(CH2)2O(CH2)2O(CH2)2CO = C[N+](C)(C)CCOCCOCCC(=O)*; Phe(4-N3) = [N-]=[N+]=Nc1ccc(C[C@H](N)C(=O)O)cc1; Trp(7-Me) = Cc1cccc2c(C[C@H](N)C(=O)O)c[nH]c12; Hexanoyl(6-NMe3+) = C[N+](C)(C)CCCCCC(=O)*; γGlu = O=C(O)[C@H](CCC(=O)[*:2])N[*:1]; 2Nal = N[C@@H](Cc1ccc2ccccc2c1)C(=O)O; AEF = NCCOc1ccc(C[C@H](N)C(=O)O)cc1; X79 = CN1CCC(N[*:1])(C(=O)[*:2])CC1; dNMeY = CN[C@H](Cc1ccc(O)cc1)C(=O)O; dLys(Me) = CNCCCC[C@@H](N)C(=O)O; 3Pal = N[C@@H](Cc1cccnc1)C(=O)O; Myristoyl = CCCCCCCCCCCCCC(=O)*; Lys(Me) = CNCCCC[C@H](N)C(=O)O; NMeK = CN[C@@H](CCCCN)C(=O)O; Pen = CC(C)(S)[C@H](N)C(=O)O; αMeK = C[C@](N)(CCCCN)C(=O)O; Thp = NC1(C(=O)O)CCOCC1; Dap = NC[C@H](N)C(=O)O; X3 = C[N+](C)(C)CCCCC*; AEEA = NCCOCCOCC(=O)O; Me2NCH2CH2 = CN(C)CC*; Tfa = O=C(C(F)(F)F)*; Sar = CNCC(=O)O
test: Exposed Polar Surface Area (EPSA); format: physicochemical; conditions: SFC on Chirex 3014 column; sample 1 mM DMSO stock
Method in brief: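 EPSA, in Å^2, is read from SFC retention time through a linear relationship established with eight calibration standards. Separation uses a Chirex 3014 stationary phase, 35 °C, 14 MPa back pressure, and a 5–60% methanol/ammonium formate modifier gradient in CO2.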

EPSA [Å^2]	Structure (SMILES)
170.27	CC(=O)NCCCC[C@H](NC(=O)[C@](C)(CCCCN)NC(=O)[C@H](Cc1ccc2ccccc2c1)NC(=O)[C@H](Cc1ccc(OCCN)cc1)NC(=O)[C@H]1NC(=O)[C@H](Cc2ccc(O)cc2)NC(=O)[C@H](Cc2c[nH]c3c(C)cccc23)NC(=O)[C@H]([C@@H](C)O)NC(=O)[C@H](CC(N)=O)NC(=O)[C@@H](NC(C)=O)C(C)(C)SSC1(C)C)C(=O)N[C@@H](CC(N)=O)C(=O)N[C@H](CCCCN)C(=O)N(C)[C@H](Cc1ccc(O)cc1)C(N)=O [compound 21, MeCO-Pen(3)-N-T-7MeW-Y-Pen(3)-AEF-2Nal-aMeK-K(Ac)-N-k-NMeDTyr-CONH2] (Ac-[Pen]NT[Trp(7-Me)]Y[Pen][AEF][2Nal][αMeK]K(Ac)N[dK][dNMeY]-NH2; disulfide 1-6 (inferred))

same assay, conditions: SFC on Chirex 3014 column; sample 1 mM DMSO stock; read-out: EPSA

Structure (SMILES)	EPSA [A^2]
CC(=O)N(C)CCCC[C@@H]1NC(=O)[C@H](Cc2c[nH]c3c(C)cccc23)NC(=O)[C@H]([C@@H](C)O)NC(=O)[C@H](CC(=O)N(C)C)NC(=O)[C@@H](NC(=O)C(F)(F)F)C(C)(C)SSC(C)(C)[C@@H](C(=O)N[C@@H](Cc2ccc(OCCN(C)C)cc2)C(=O)N[C@@H](Cc2ccc3ccccc3c2)C(=O)NC2(C(=O)N[C@@H](CCCCN(C)C(C)=O)C(=O)N[C@@H](CC(N)=O)C(=O)N[C@@H](Cc3cccnc3)C(=O)N(C)CC(=O)N(C)C)CCOCC2)NC1=O [compound 66, CF3CO-Pen(3)-N(N(Me)2)-T-7MeW-K(NMeAc)-Pen(3)-AEF(N(Me)2)-2Nal-THP-K(NMeAc)-N-3Pya-Sar-CON(Me)2] (Tfa-[Pen]D(NMe2)T[Trp(7-Me)][Lys(Me)](Ac)[Pen]Y(Me2NCH2CH2)[2Nal][Thp][Lys(Me)](Ac)N[3Pal][Sar]-NMe2; disulfide 1-6 (inferred))	138
CC(=O)NCCCC[C@@H]1NC(=O)[C@H](Cc2c[nH]c3c(C)cccc23)NC(=O)[C@H]([C@@H](C)O)NC(=O)[C@H](CC(N)=O)NC(=O)[C@@H](NC(C)=O)C(C)(C)SSC(C)(C)[C@@H](C(=O)N[C@@H](Cc2ccc(N=[N+]=[N-])cc2)C(=O)N[C@@H](Cc2ccc3ccccc3c2)C(=O)NC2(C(=O)N[C@@H](CCC(=O)O)C(=O)N[C@@H](CC(N)=O)C(=O)N[C@@H](Cc3cccnc3)C(=O)N(C)CC(N)=O)CCOCC2)NC1=O [compound 435] (Ac-[Pen]NT[Trp(7-Me)]K(Ac)[Pen][Phe(4-N3)][2Nal][Thp]EN[3Pal][Sar]-NH2; disulfide 1-6 (inferred))	182
CC(=O)NCCCC[C@H](NC(=O)[C@](C)(CCCCN)NC(=O)[C@H](Cc1ccc2ccccc2c1)NC(=O)[C@H](Cc1ccc(OCCN)cc1)NC(=O)[C@H]1NC(=O)[C@H](Cc2ccc(O)cc2)NC(=O)[C@H](Cc2c[nH]c3c(C)cccc23)NC(=O)[C@H]([C@@H](C)O)NC(=O)[C@H](CC(N)=O)NC(=O)[C@@H](NC(C)=O)C(C)(C)SSC1(C)C)C(=O)N[C@@H](CC(N)=O)C(=O)N[C@H](CCCCN)C(=O)N(C)[C@H](Cc1ccc(O)cc1)C(N)=O [compound 21, MeCO-Pen(3)-N-T-7MeW-Y-Pen(3)-AEF-2Nal-aMeK-K(Ac)-N-k-NMeDTyr-CONH2] (Ac-[Pen]NT[Trp(7-Me)]Y[Pen][AEF][2Nal][αMeK]K(Ac)N[dK][dNMeY]-NH2; disulfide 1-6 (inferred))	152
Cc1cccc2c(C[C@@H]3NC(=O)[C@H]([C@@H](C)O)NC(=O)[C@H](CC(=O)N(C)C)NC(=O)[C@@H](NC(=O)CCOCCOCC[N+](C)(C)C)C(C)(C)SSC(C)(C)[C@@H](C(=O)N[C@@H](Cc4ccc(OCCN(C)C)cc4)C(=O)N[C@@H](Cc4ccc5ccccc5c4)C(=O)NC4(C(=O)N[C@@H](CCC(=O)N(C)C)C(=O)N[C@@H](CC(N)=O)C(=O)N[C@@H](Cc5cccnc5)C(=O)N(C)CC(=O)N(C)C)CCOCC4)NC(=O)[C@H](CCC(=O)N(C)C)NC3=O)c[nH]c12 [compound 154, cPEG3aCO-Pen(3)-N(N(Me)2)-T-7MeW-Q(N(Me)2)-Pen(3)-AEF(N(Me)2)-2Nal-THP-Q(N(Me)2)-N-3Pya-Sar-CON(Me)2] ({Me3N+(CH2)2O(CH2)2O(CH2)2CO}-[Pen]D(NMe2)T[Trp(7-Me)]E(NMe2)[Pen]Y(Me2NCH2CH2)[2Nal][Thp]E(NMe2)N[3Pal][Sar]-NMe2; disulfide 1-6)	144
CCCCCCCCCCCCCC(=O)N[C@@H](CCC(=O)NCCOCCOCC(=O)NCCOCCOCC(=O)NCCCC[C@@H]1NC(=O)[C@@H](NC(=O)CCOCCOCC[N+](C)(C)C)C(C)(C)SSC(C)(C)[C@@H](C(=O)N[C@@H](Cc2ccc(OCCCCC[N+](C)(C)C)cc2)C(=O)N[C@@H](Cc2ccc3ccccc3c2)C(=O)NC2(C(=O)N[C@@H](CCCCN(C)C(C)=O)C(=O)N[C@@H](CC(N)=O)C(=O)N[C@@H](Cc3cccnc3)C(=O)N(C)[C@@H](CCCCNC(=O)COCCOCCNC(=O)COCCOCCNC(=O)CC[C@H](NC(=O)CCCCCCCCCCCCC)C(=O)O)C(N)=O)CCOCC2)NC(=O)[C@H](CCCCNC(C)=O)NC(=O)[C@H](Cc2c[nH]c3c(C)cccc23)NC(=O)[C@H]([C@@H](C)O)NC1=O)C(=O)O [compound 357, cPEG3aCO-Pen(3)-K(PEG2PEG2gEC14)-T-7MeW-K(Ac)-Pen(3)-TMAPF-2Nal-THP-K(NMeac)-N-3Pya-NMeK(PEG2PEG2gEC14)-CONH2] ({Me3N+(CH2)2O(CH2)2O(CH2)2CO}-[Pen]K([AEEA-AEEA-γGlu-Myristoyl])T[Trp(7-Me)]K(Ac)[Pen]Y(X3)[2Nal][Thp][Lys(Me)](Ac)N[3Pal][NMeK]([AEEA-AEEA-γGlu-Myristoyl])-NH2; disulfide 1-6)	181
CCCCCCCCCCCCCC(=O)N[C@@H](CCC(=O)NCCOCCOCC(=O)NCCOCCOCC(=O)NCCCC[C@@H]1NC(=O)[C@H](Cc2c[nH]c3c(C)cccc23)NC(=O)[C@H]([C@@H](C)O)NC(=O)[C@H](CCCCNC(=O)COCCOCCNC(=O)COCCOCCNC(=O)CC[C@H](NC(=O)CCCCCCCCCCCCC)C(=O)O)NC(=O)[C@@H](NC(=O)CCOCCOCC[N+](C)(C)C)C(C)(C)SSC(C)(C)[C@@H](C(=O)N[C@@H](Cc2ccc(OCCCCC[N+](C)(C)C)cc2)C(=O)N[C@@H](Cc2ccc3ccccc3c2)C(=O)NC2(C(=O)N[C@@H](CCCCN(C)C(C)=O)C(=O)N[C@@H](CC(N)=O)C(=O)N[C@@H](Cc3cccnc3)C(=O)N(C)CC(=O)N(C)C)CCOCC2)NC1=O)C(=O)O [compound 396, cPEG3aCO-Pen(3)-K(PEG2PEG2gEC14)-T-7MeW-K(PEG2PEG2gEC14)-Pen(3)-TMAPF-2Nal-THP-K(NMeAc)-N-3Pya-Sar-CON(Me)2] ({Me3N+(CH2)2O(CH2)2O(CH2)2CO}-[Pen]K([AEEA-AEEA-γGlu-Myristoyl])T[Trp(7-Me)]K([AEEA-AEEA-γGlu-Myristoyl])[Pen]Y(X3)[2Nal][Thp][Lys(Me)](Ac)N[3Pal][Sar]-NMe2; disulfide 1-6)	172
CC(=O)NCCCC[C@@H]1NC(=O)[C@H](Cc2c[nH]c3c(C)cccc23)NC(=O)[C@H]([C@@H](C)O)NC(=O)[C@H](CC(N)=O)NC(=O)[C@@H](NC(=O)C(F)(F)F)C(C)(C)SSC(C)(C)[C@@H](C(=O)N[C@@H](Cc2ccc(OCCN)cc2)C(=O)N[C@@H](Cc2ccc3ccccc3c2)C(=O)NC2(C(=O)N[C@@H](CCCCNC(C)=O)C(=O)N[C@@H](CC(N)=O)C(=O)N[C@@H](Cc3cccnc3)C(=O)N(C)CC(N)=O)CCN(C)CC2)NC1=O [compound 55] (Tfa-[Pen]NT[Trp(7-Me)]K(Ac)[Pen][AEF][2Nal][X79]K(Ac)N[3Pal][Sar]-NH2; disulfide 1-6 (inferred))	159

More lines, now with the values ahead:

EPSA [A^2]	Structure (SMILES)
164	CC(=O)NCCCC[C@@H]1NC(=O)[C@H](Cc2c[nH]c3c(C)cccc23)NC(=O)[C@H]([C@@H](C)O)NC(=O)[C@H](CC(N)=O)NC(=O)[C@@H](NC(=O)CCCCC[N+](C)(C)C)C(C)(C)SSC(C)(C)[C@@H](C(=O)N[C@@H](Cc2ccc(OCCN)cc2)C(=O)N[C@@H](Cc2ccc3ccccc3c2)C(=O)NC2(C(=O)N[C@@H](CNC(C)=O)C(=O)N[C@@H](CC(N)=O)C(=O)N[C@@H](Cc3cccnc3)C(=O)N(C)CC(N)=O)CCOCC2)NC1=O [compound 99] ({Hexanoyl(6-NMe3+)}-[Pen]NT[Trp(7-Me)]K(Ac)[Pen][AEF][2Nal][Thp][Dap](Ac)N[3Pal][Sar]-NH2; disulfide 1-6 (inferred))
171	CC(=O)NCCCC[C@@H]1NC(=O)[C@H](Cc2c[nH]c3c(C)cccc23)NC(=O)[C@H]([C@@H](C)O)NC(=O)[C@H](CC(N)=O)NC(=O)[C@@H](NC(=O)C(COCCOCC[N+](C)(C)C)NC(C)=O)C(C)(C)SSC(C)(C)[C@@H](C(=O)N[C@@H](Cc2ccc(OCCCCC[N+](C)(C)C)cc2)C(=O)N[C@@H](Cc2ccc3ccccc3c2)C(=O)NC2(C(=O)N[C@@H](CCC(=O)O)C(=O)N[C@@H](CC(N)=O)C(=O)N[C@@H](Cc3cccnc3)C(=O)N(C)CC(N)=O)CCOCC2)NC1=O (mixture of isomers) [compound 555, MeCO-APEG2Ser(RS)-Pen(3)-N-T-7MeW-K(Ac)-Pen(3)-TMAPF-2Nal-THP-E-N-3Pya-Sar-CONH2]
153	CC(=O)NCCCC[C@@H]1NC(=O)[C@H](Cc2c[nH]c3c(C)cccc23)NC(=O)[C@H]([C@@H](C)O)NC(=O)[C@H](CC(N)=O)NC(=O)[C@@H](NC(C)=O)C(C)(C)SSC(C)(C)[C@@H](C(=O)N[C@@H](Cc2ccc(OCCN)cc2)C(=O)N[C@@H](Cc2ccc3ccccc3c2)C(=O)NC2(C(=O)N[C@H](CCCCN(C)C(=O)CCOCCOCCOCCOCC[N+](C)(C)C)C(=O)N[C@@H](CC(N)=O)C(=O)N[C@@H](Cc3cccnc3)C(=O)N(C)CC(N)=O)CCOCC2)NC1=O [compound 111] (Ac-[Pen]NT[Trp(7-Me)]K(Ac)[Pen][AEF][2Nal][Thp][dLys(Me)](Me3N+CH2CH2(OCH2CH2)4CO)N[3Pal][Sar]-NH2; disulfide 1-6)
163	CC(=O)NCCCC[C@@H]1NC(=O)[C@H](Cc2c[nH]c3cccc(C)c23)NC(=O)[C@H]([C@@H](C)O)NC(=O)[C@H](CC(N)=O)NC(=O)[C@@H](NC(C)=O)C(C)(C)SSC(C)(C)[C@@H](C(=O)N[C@@H](Cc2ccc(OCCCCC[N+](C)(C)C)cc2)C(=O)N[C@@H](Cc2ccc3ccccc3c2)C(=O)NC2(C(=O)N[C@@H](CCCCNC(C)=O)C(=O)N[C@@H](CC(N)=O)C(=O)N[C@@H](Cc3cccnc3)C(=O)N(C)CC(N)=O)CCCC2)NC1=O [compound 537, MeCO-Pen(3)-N-T-7MeW-K(Ac)-Pen(3)-TMAPF-2Nal-Acpx-K(Ac)-N-3Pya-Sar-CONH2]
169	CC(=O)NCCCC[C@@H]1NC(=O)[C@H](Cc2c[nH]c3c(C)cccc23)NC(=O)[C@H]([C@@H](C)O)NC(=O)[C@H](CC(N)=O)NC(=O)[C@@H](NC(C)=O)C(C)(C)SSC(C)(C)[C@@H](C(=O)N[C@@H](Cc2ccc(OCCN)cc2)C(=O)N[C@@H](Cc2ccc3ccccc3c2)C(=O)NC2(C(=O)N[C@@H](CCC(=O)O)C(=O)N[C@@H](CC(N)=O)C(=O)N[C@@H](Cc3cccnc3)C(=O)N(C)CC(=O)N3CCOCC3)CCOCC2)NC1=O [SEQ ID 112, MeCO-Pen(3)—N-T-7MeW—K(Ac)-Pen(3)-AEF-2Nal-THIP-E-N-3Pya-Sar-COMor]
